Test results reported in patent publication US20120088827A1 (Profectus Biosciences, Inc., priority 2009, published 2012).

Key:
IL-6 = experiment: Inhibition of IL-6 release in LPS-stimulated RAW 264.7 cells; format: cell-based; settings: Mus musculus, RAW264.7; pretreated 2 hours, 1 μg/mL LPS 20-24 hours
Experimental: RAW 264.7 cells were seeded at 4×10^4 cells per well in complete growth medium in 96 well white TC plates with clear bottoms one day prior to the assay. The next day the cells were washed once and 100 μL fresh growth media was added. Cells were pretreated with 0.5 μL from a 6 point 200× dilution series of the test compounds in DMSO for 2 hours. Following pretreatment with the drugs, the inflammatory response was induced by adding 5 μL of a 20 μg/mL solution of LPS (Sigma). The cells were incubated in the presence of the drugs and 1 μg/mL LPS for another 20-24 hours. Typically after treatment the total DMSO was […] of the culture volume and the final concentrations of the compounds were approximately: 40, 20, 10, 1, 0.2 and 0 μM depending on the MW of each compound. Modified dilution series were prepared as needed to get adequate dose response curves without changing the % DMSO. Samples were run in duplicate or triplicate and included DMSO treated control wells with and without LPS stimulation. Drugs with a known activity such as Parthenolide or DHMEQ were run as experimental controls. After 20-24 hours LPS activation, the media supernatant was collected from the cells and replaced with fresh media. The supernatant samples were cleared by centrifugation at 1,000×g for 5 minutes, transferred to fresh storage plates, and stored frozen at −30° C.
After determining the appropriate supernatant dilutions experimentally, mIL-6 levels in the supernatants were quantified using Quantikine™ mouse IL-6 Immunoassay (R&D Systems) according to the manufacturer's protocol. Approximately 50 μL of the supernatants diluted in Calibrator Diluent were added to 50 μL of Assay Diluent in microplate wells pre-coated with an anti-mouse IL-6 capture antibody. Controls included a calibrated positive IL-6 control sample, non-specific binding (NSB) wells containing Calibrator Diluent but no IL-6, and a recombinant mouse IL-6 standard dilution series (10-1000 pg/mL). The plates were incubated at room temperature for 2 hours with shaking and then washed 5 times with 400 μL 1× Wash Buffer. Approximately 100 μL of an HRP-conjugated anti-mouse IL-6 antibody was added to each well to detect IL-6 captured on the plate. The plates were incubated at room temperature for 2 hours and then washed 5 times with 400 μl 1× Wash Buffer. Equal volumes of Color Reagents A and B were mixed and 100 μL of this HRP Substrate Solution was added to each well on the plate. The blue color was allowed to develop for 30 minutes and then the reaction was stopped using 100 μL of Stop Solution yielding a yellow color. Absorbance at 450 nm with a reference wavelength subtracted at 595 nm was recorded using a Becton-Dickinson DTX 880 Multimode Detector.
The concentration of mIL-6 in the unknown samples was determined from a curve-fit of the mIL-6 standard absorbance data and multiplying by the dilution factor. The maximum activity achieved in the absence of the inhibitor (DMSO+LPS treated wells) was arbitrarily given a value of 100%; likewise the minimum activity in the absence of the stimulant (no LPS) was assigned a value of 0% Inhibition of the amount of mIL-6 cytokine released in the drug treated wells was calculated relative to the maximum activation in the DMSO+LPS treated control wells (i.e., % inhibition=100−(drug+LPS treated)/(DMSO+LPS treated)). Dose response curves were used to determine the effective concentration to inhibit 50% of the mIL-6 cytokine released (IC50) by means of a SigmaPlot macro which fits a sigmoidal dose-response curve to the (log 10) μM concentration versus % inhibition. […] This technique yields an objective value for the IC50 provided that 50% inhibition was approached at the concentrations tested.

NF-κB p65 = target: T1, NF-κB p65 (Homo sapiens, UniProt Q04206); experiment: TransAM NF-κB Family DNA Binding ELISA, p65; settings: binding to NF-κB consensus oligonucleotide; read-out: p65 binding IC50
T1 construct: purchased Active Motif
T1 sequence (Q04206 whole entry): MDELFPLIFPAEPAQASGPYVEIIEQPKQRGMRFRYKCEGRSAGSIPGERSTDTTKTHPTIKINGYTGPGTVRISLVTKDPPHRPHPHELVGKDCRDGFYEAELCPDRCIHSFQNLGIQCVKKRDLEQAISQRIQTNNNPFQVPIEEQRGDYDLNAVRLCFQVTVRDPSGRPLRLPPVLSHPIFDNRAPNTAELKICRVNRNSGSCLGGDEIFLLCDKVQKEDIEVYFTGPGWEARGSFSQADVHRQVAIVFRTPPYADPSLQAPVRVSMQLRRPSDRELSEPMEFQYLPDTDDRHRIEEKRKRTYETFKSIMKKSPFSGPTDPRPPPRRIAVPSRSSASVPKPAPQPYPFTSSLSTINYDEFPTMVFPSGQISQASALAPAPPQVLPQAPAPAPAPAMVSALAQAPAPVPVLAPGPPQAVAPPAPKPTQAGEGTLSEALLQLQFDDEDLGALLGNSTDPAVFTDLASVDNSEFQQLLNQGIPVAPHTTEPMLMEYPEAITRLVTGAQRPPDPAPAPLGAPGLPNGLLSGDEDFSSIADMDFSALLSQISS
Experimental: (§1) The binding activity of NF-κB heterodimer or homodimer subunits from activated nuclear extracts or purified recombinant NF-κB proteins exposed to the drug compounds was evaluated using the TransAM NF-κB Family binding ELISA (Active Motif). Approximately 3-5 μg of nuclear extracts from TNFα activated Hela or Raji cells (Active Motif) or 20 ng of purified recombinant proteins (p65 and p50 from Active Motif, p52 from Santa Cruz) were incubated for 1 hour at room temperature with 20 μL drug compounds diluted in Complete Lysis buffer without DTT. Treated samples were then transferred to 30 μL Complete Binding Buffer (with DTT) in microplate wells pre-coated with the NF-κB consensus oligonucleotide. […] The plate was incubated for 1 hour at room temperature with gentle shaking and then washed 3 times with 200 μL 1× Wash Buffer. NF-κB p65, p50, p52, RelB, or c-Rel subunits bound to the plate were detected with 100 μL of the primary antibody (diluted 1:1000 in 1× Antibody Buffer) specific for that subunit. The plate was incubated for 1 hour at room temperature and then washed 3 times with 200 μL 1× Wash Buffer. Next, 100 μL of a HRP conjugated goat anti-rabbit antibody (diluted 1:1,000 in 1× Antibody Buffer) was added to each well. The plate was incubated for 1 hour at room temperature and then washed 4 times with 200 μL 1× Wash Buffer. 100 μL of room temperature Developing Solution was added to each well. The reaction was allowed to develop for 2-10 minutes until a medium dark blue color developed (depending on the subunit activity in the lot of extract or lot of recombinant protein used) and then the reaction was stopped with 100 μL Stop Solution yielding a yellow color. Absorbance was recorded using a Becton-Dickinson DTX 880 Multimode Detector at 450 nm with a reference wavelength subtracted at 620 nm.

RelB = target: T2, RelB (Homo sapiens, UniProt Q01201); experiment: TransAM NF-κB Family DNA Binding ELISA, RelB
T2 sequence (Q01201 1-579): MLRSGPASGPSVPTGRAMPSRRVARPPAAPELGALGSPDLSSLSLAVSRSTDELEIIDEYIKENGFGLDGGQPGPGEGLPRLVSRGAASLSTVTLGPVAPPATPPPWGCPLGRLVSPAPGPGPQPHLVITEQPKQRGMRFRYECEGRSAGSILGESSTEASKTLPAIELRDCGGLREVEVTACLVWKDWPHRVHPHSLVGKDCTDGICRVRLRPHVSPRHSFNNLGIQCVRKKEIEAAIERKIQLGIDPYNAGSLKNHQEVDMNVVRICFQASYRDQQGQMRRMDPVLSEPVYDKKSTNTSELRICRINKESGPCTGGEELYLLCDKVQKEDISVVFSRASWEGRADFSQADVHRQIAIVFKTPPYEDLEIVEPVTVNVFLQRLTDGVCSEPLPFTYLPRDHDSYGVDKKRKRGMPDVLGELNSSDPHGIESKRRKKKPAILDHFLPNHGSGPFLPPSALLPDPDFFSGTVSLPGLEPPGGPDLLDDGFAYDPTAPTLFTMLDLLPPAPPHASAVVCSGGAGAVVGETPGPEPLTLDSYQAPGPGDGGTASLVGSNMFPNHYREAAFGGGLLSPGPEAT
Experimental: as §1

Row | Compound | EC50 (IL-6) [nM] | IC50 (NF-κB p65) [µM] | inhibition at 5 µM (RelB) [%]
1 | O=C(CC1CCCCC1)Oc1ccccc1C(=O)NC1=CC(=O)C2OC2C1O (racemic) [Example 3, (±)-2-(2-hydroxy-5-oxo-7-oxabicyclo[4.1.0]hept-3-en-3-ylcarbamoyl)phenyl 2-cyclohexylacetate] | 720 | 93 | 3
2 | CC(C)OC(=O)Oc1ccccc1C(=O)NC1=CC(=O)C2OC2C1OC(=O)OC(C)C (racemic) [Example 2, (±)-3-(2-isopropoxycarbonyloxy-benzoylamino)-5-oxo-7-oxa-bicyclo[4.1.0]hept-3-en-2-yl ester isopropyl ester] | 1300 | > 376 | 2
3 | CC(C)CC(=O)Oc1ccccc1C(=O)NC1=CC(=O)C2OC2C1O (racemic) [Example 1, (±)-2-(2-hydroxy-5-oxo-7-oxabicyclo[4.1.0]hept-3-en-3-ylcarbamoyl)phenyl 3-methylbutanoate] | 500 | 214 | 0
4 | CC(C)OC(=O)OC1C(NC(=O)c2ccccc2O)=CC(=O)C2OC21 (racemic) [Example 8] | 1500 | 336 | 2
5 | CC(C)OC(=O)Oc1ccccc1C(=O)NC1=CC(=O)C2OC2C1O (racemic) [Example 7, (±)-2-(2-hydroxy-5-oxo-7-oxabicyclo[4.1.0]hept-3-en-3-ylcarbamoyl)phenyl isopropyl carbonate] | 1700 | > 480 | 0

Stronger by EC50 (IL-6), values ahead:

Row | EC50 (IL-6) [nM] | IC50 (NF-κB p65) [µM] | inhibition at 5 µM (RelB) [%] | Compound
6 | 440 | > 430 | 5 | CCCCC(CC)C(=O)Oc1ccccc1C(=O)NC1=CC(=O)C2OC2C1O (racemic) [Example 5, (±)-2-(2-hydroxy-5-oxo-7-oxabicyclo[4.1.0]hept-3-en-3-ylcarbamoyl)phenyl 2-ethylhexanoate]
7 | 450 | 149 | 5 | CCCC(C)C(=O)Oc1ccccc1C(=O)NC1=CC(=O)C2OC2C1O (racemic) [Example 4, (±)-2-(2-hydroxy-5-oxo-7-oxabicyclo[4.1.0]hept-3-en-3-ylcarbamoyl)phenyl 2-methylpentanoate]
8 | 350 | 67 | 3 | CC(C)(C)CC(=O)Oc1ccccc1C(=O)NC1=CC(=O)C2OC2C1O (racemic) [Example 6, (±)-2-(2-hydroxy-5-oxo-7-oxabicyclo[4.1.0]hept-3-en-3-ylcarbamoyl)phenyl 3,3-dimethylbutanoate]
